# Test results reported in ChEMBL document CHEMBL3885861, “Open TG-GATES”.
# Organism: Rattus norvegicus
# Assay: Open TG-GATES - Regimen: Daily Repeat
# Type: toxicity, organism-based, Sprague-Dawley
# Set-up: regimen Daily Repeat, gender Male, age 6 weeks
# Details: in vivo, po, 300 mg/kg, route gavage, dose level Middle; for APTT / Bas / Eos / Fbg / Hb / Ht / Lym / MCH / MCHC / MCV / Mono / Neu / PT / Plat / RBC / Ret / WBC: tissue Blood; for KIDNEY_L / KIDNEY_R / KIDNEY_TOTAL: tissue Kidney; for LIVER: tissue Liver; for A/G / ALP / ALT / AST / BUN / CRE / Ca / Cl / DBIL / GLC / IP / LDH / Na / PL / RALB / TBIL / TC / TG / TP / gamma-GTP: tissue Plasma
smiles,measurement,setting,value
NC(N)=Nc1nc(CSCCC(N)=NS(N)(=O)=O)cs1 [FAMOTIDINE],TERMINAL_BW,"72 h, time 3 day",225.8 g
same,APTT,"72 h, time 3 day",21.2 s
same,Bas,"72 h, time 3 day",0%
same,Eos,"72 h, time 3 day",1%
same,Fbg,"72 h, time 3 day",222 mg/dL
same,Hb,"72 h, time 3 day",13.6 g/dL
same,Ht,"72 h, time 3 day",37.4%
same,Lym,"72 h, time 3 day",82%
same,MCH,"72 h, time 3 day",23 pg
same,MCHC,"72 h, time 3 day",36.3%
same,MCV,"72 h, time 3 day",63.4 fL
same,Mono,"72 h, time 3 day",2.6%
same,Neu,"72 h, time 3 day",13.2%
same,PT,"72 h, time 3 day",12 s
same,Plat,"72 h, time 3 day",127.7 x10_4/uL
same,RBC,"72 h, time 3 day",589.8 x10_4/ul
same,Ret,"72 h, time 3 day",5.1%
same,WBC,"72 h, time 3 day",106.3 x10_2/uL
same,KIDNEY_L,"72 h, time 3 day",1 g
same,KIDNEY_R,"72 h, time 3 day",1 g
same,KIDNEY_TOTAL,"72 h, time 3 day",2 g
same,LIVER,"72 h, time 3 day",10.4 g
same,A/G,"72 h, time 3 day",1.7
same,ALP,"72 h, time 3 day",998.8 IU/L
same,ALT,"72 h, time 3 day",33.6 IU/L
same,AST,"72 h, time 3 day",65 IU/L
same,BUN,"72 h, time 3 day",14.4 mg/dL
same,CRE,"72 h, time 3 day",0.4 mg/dL
same,Ca,"72 h, time 3 day",10.9 mg/dL
same,Cl,"72 h, time 3 day",102.6 meq/L
same,DBIL,"72 h, time 3 day",0.082 mg/dL
same,GLC,"72 h, time 3 day",186.2 mg/dL
same,IP,"72 h, time 3 day",7.8 mg/dL
same,LDH,"72 h, time 3 day",194.2 IU/L
same,Na,"72 h, time 3 day",139.2 meq/L
same,PL,"72 h, time 3 day",141.4 mg/dL
same,RALB,"72 h, time 3 day",3.5 g/dL
same,TBIL,"72 h, time 3 day",0.1 mg/dL
same,TC,"72 h, time 3 day",76.2 mg/dL
same,TG,"72 h, time 3 day",77.6 mg/dL
same,TP,"72 h, time 3 day",5.6 g/dL
same,gamma-GTP,"72 h, time 3 day",1.2 IU/L
same,TERMINAL_BW,"[…], time 7 day",261.1 g
same,TERMINAL_BW,"[…], time 14 day",316.2 g
same,TERMINAL_BW,"[…], time 28 day",394.2 g
same,APTT,"[…], time 7 day",20.3 s
same,Bas,"[…], time 7 day",0%
same,Eos,"[…], time 7 day",1%
same,Fbg,"[…], time 7 day",225 mg/dL
same,Hb,"[…], time 7 day",13.9 g/dL
same,Ht,"[…], time 7 day",38.8%
same,Lym,"[…], time 7 day",79.2%
same,MCH,"[…], time 7 day",22.1 pg
same,MCHC,"[…], time 7 day",35.8%
same,MCV,"[…], time 7 day",61.7 fL
same,Mono,"[…], time 7 day",2.2%
same,Neu,"[…], time 7 day",16%
same,PT,"[…], time 7 day",12 s
same,Plat,"[…], time 7 day",114.6 x10_4/uL
same,RBC,"[…], time 7 day",629.6 x10_4/ul
same,Ret,"[…], time 7 day",5.2%
same,WBC,"[…], time 7 day",85.9 x10_2/uL
same,APTT,"[…], time 14 day",19.7 s
same,Bas,"[…], time 14 day",0%
same,Eos,"[…], time 14 day",0.8%
same,Fbg,"[…], time 14 day",224 mg/dL
same,Hb,"[…], time 14 day",14.4 g/dL
same,Ht,"[…], time 14 day",42%
same,Lym,"[…], time 14 day",79%
same,MCH,"[…], time 14 day",20.9 pg
same,MCHC,"[…], time 14 day",34.3%
same,MCV,"[…], time 14 day",60.9 fL
same,Mono,"[…], time 14 day",2.8%
same,Neu,"[…], time 14 day",16%
same,PT,"[…], time 14 day",12.4 s
same,Plat,"[…], time 14 day",120.5 x10_4/uL
same,RBC,"[…], time 14 day",689.4 x10_4/ul
same,Ret,"[…], time 14 day",4.3%
same,WBC,"[…], time 14 day",117 x10_2/uL
same,APTT,"[…], time 28 day",20.2 s
same,Bas,"[…], time 28 day",0%
same,Eos,"[…], time 28 day",1.4%
same,Fbg,"[…], time 28 day",220.6 mg/dL
same,Hb,"[…], time 28 day",15.4 g/dL
same,Ht,"[…], time 28 day",43.3%
same,Lym,"[…], time 28 day",82.2%
same,MCH,"[…], time 28 day",20 pg
same,MCHC,"[…], time 28 day",35.4%
same,MCV,"[…], time 28 day",56.4 fL
same,Mono,"[…], time 28 day",1.6%
same,Neu,"[…], time 28 day",13.4%
same,PT,"[…], time 28 day",12.5 s
same,Plat,"[…], time 28 day",100.3 x10_4/uL
same,RBC,"[…], time 28 day",768.2 x10_4/ul
same,Ret,"[…], time 28 day",2.3%
same,WBC,"[…], time 28 day",116.4 x10_2/uL
same,KIDNEY_L,"[…], time 7 day",1.2 g
same,KIDNEY_R,"[…], time 7 day",1.1 g
same,KIDNEY_TOTAL,"[…], time 7 day",2.3 g
same,KIDNEY_L,"[…], time 14 day",1.2 g
same,KIDNEY_R,"[…], time 14 day",1.2 g
same,KIDNEY_TOTAL,"[…], time 14 day",2.4 g
same,KIDNEY_L,"[…], time 28 day",1.4 g
same,KIDNEY_R,"[…], time 28 day",1.4 g
same,KIDNEY_TOTAL,"[…], time 28 day",2.8 g
same,LIVER,"[…], time 7 day",12.6 g
same,LIVER,"[…], time 14 day",13.4 g
same,LIVER,"[…], time 28 day",14.9 g
same,A/G,"[…], time 7 day",1.5
same,ALP,"[…], time 7 day",921.4 IU/L
same,ALT,"[…], time 7 day",34.2 IU/L
same,AST,"[…], time 7 day",65.2 IU/L
same,BUN,"[…], time 7 day",15.6 mg/dL
same,CRE,"[…], time 7 day",0.4 mg/dL
same,Ca,"[…], time 7 day",10.8 mg/dL
same,Cl,"[…], time 7 day",103.4 meq/L
same,DBIL,"[…], time 7 day",0.092 mg/dL
same,GLC,"[…], time 7 day",192.8 mg/dL
same,IP,"[…], time 7 day",7.6 mg/dL
same,LDH,"[…], time 7 day",183.4 IU/L
same,Na,"[…], time 7 day",141.4 meq/L
same,PL,"[…], time 7 day",161 mg/dL
same,RALB,"[…], time 7 day",3.4 g/dL
same,TBIL,"[…], time 7 day",0.1 mg/dL
same,TC,"[…], time 7 day",83.8 mg/dL
same,TG,"[…], time 7 day",111.4 mg/dL
same,TP,"[…], time 7 day",5.7 g/dL
same,gamma-GTP,"[…], time 7 day",1.4 IU/L
same,A/G,"[…], time 14 day",1.6
same,ALP,"[…], time 14 day",907.6 IU/L
same,ALT,"[…], time 14 day",40.2 IU/L
same,AST,"[…], time 14 day",66 IU/L
same,BUN,"[…], time 14 day",16 mg/dL
same,CRE,"[…], time 14 day",0.5 mg/dL
same,Ca,"[…], time 14 day",10.6 mg/dL
same,Cl,"[…], time 14 day",103.2 meq/L
same,DBIL,"[…], time 14 day",0.1 mg/dL
same,GLC,"[…], time 14 day",208.2 mg/dL
same,IP,"[…], time 14 day",7.3 mg/dL
same,LDH,"[…], time 14 day",151.6 IU/L
same,Na,"[…], time 14 day",140.2 meq/L
same,PL,"[…], time 14 day",146.6 mg/dL
same,RALB,"[…], time 14 day",3.5 g/dL
same,TBIL,"[…], time 14 day",0.2 mg/dL
same,TC,"[…], time 14 day",76 mg/dL
same,TG,"[…], time 14 day",97.4 mg/dL
same,TP,"[…], time 14 day",5.7 g/dL
same,gamma-GTP,"[…], time 14 day",2.2 IU/L
same,A/G,"[…], time 28 day",1.3
same,ALP,"[…], time 28 day",609.6 IU/L
same,ALT,"[…], time 28 day",35.2 IU/L
same,AST,"[…], time 28 day",66.8 IU/L
same,BUN,"[…], time 28 day",16.6 mg/dL
same,CRE,"[…], time 28 day",0.5 mg/dL
same,Ca,"[…], time 28 day",10.4 mg/dL
same,Cl,"[…], time 28 day",103.4 meq/L
same,DBIL,"[…], time 28 day",0.072 mg/dL
same,GLC,"[…], time 28 day",217.8 mg/dL
same,IP,"[…], time 28 day",7 mg/dL
same,LDH,"[…], time 28 day",160.6 IU/L
same,Na,"[…], time 28 day",141 meq/L
same,PL,"[…], time 28 day",133 mg/dL
same,RALB,"[…], time 28 day",3.3 g/dL
same,TBIL,"[…], time 28 day",0.1 mg/dL
same,TC,"[…], time 28 day",68.6 mg/dL
same,TG,"[…], time 28 day",86.2 mg/dL
same,TP,"[…], time 28 day",5.9 g/dL
same,gamma-GTP,"[…], time 28 day",1 IU/L
